DC50 data for 11 compounds are collected here from patent US11420956B2, “Ureas having Androgen Receptor degradation activity and uses thereof” (ACCUTAR BIOTECHNOLOGY INC., priority 2019, dated 2022).

The target of this experiment is T1, androgen receptor (AR) (Homo sapiens, UniProt P10275, T878A).
T1 construct: endogenous in cells; host or cells: LNCAP
T1 sequence (P10275 1-920 T878A): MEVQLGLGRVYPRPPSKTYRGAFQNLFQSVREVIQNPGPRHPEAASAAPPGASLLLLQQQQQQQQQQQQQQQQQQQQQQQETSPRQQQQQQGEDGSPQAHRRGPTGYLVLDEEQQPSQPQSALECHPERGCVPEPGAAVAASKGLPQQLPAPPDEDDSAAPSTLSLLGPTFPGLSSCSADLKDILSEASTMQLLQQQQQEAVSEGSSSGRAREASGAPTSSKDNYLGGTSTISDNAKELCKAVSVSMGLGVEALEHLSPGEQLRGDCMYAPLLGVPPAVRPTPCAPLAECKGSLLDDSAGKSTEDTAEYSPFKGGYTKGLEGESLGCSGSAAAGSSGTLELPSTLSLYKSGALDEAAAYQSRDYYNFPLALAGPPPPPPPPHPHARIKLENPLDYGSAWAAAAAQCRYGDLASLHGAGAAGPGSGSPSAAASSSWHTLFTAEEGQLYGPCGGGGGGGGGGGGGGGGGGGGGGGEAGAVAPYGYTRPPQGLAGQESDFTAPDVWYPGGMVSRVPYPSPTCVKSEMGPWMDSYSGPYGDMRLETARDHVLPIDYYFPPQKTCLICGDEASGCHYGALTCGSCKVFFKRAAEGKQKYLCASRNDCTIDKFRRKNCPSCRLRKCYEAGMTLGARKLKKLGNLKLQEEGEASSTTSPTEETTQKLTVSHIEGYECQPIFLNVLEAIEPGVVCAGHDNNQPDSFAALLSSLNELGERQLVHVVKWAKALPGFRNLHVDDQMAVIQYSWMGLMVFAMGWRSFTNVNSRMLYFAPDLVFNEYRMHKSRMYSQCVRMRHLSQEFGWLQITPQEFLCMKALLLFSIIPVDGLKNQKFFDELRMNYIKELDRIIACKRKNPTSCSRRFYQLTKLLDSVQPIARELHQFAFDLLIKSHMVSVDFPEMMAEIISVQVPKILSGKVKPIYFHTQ
In words: AR degradation in LNCAP cells (Western blot). Format: cell-based. Conditions: 24 hours after administration. The method, then:
LNCAP, VCAP and 22Rv1 cells were plated in 24-well plates at 1.5×10E5 cells/well in the RPMI growth medium containing 10% FBS and 1% Penicillin Streptomycin, and then incubated at 37° C. overnight. The following day, the test compound was administered to the cells by using 1000× compound stock solution prepared in DMSO at various concentrations. After administration of the compound, the cells were then incubated at 37° C. for 24 hours. Upon completion, the cells were washed with PBS and protein was collected in Laemmli sample buffer (1×; VWR International). Proteins in cell lysate were separated by SDS-PAGE and transferred to Odyssey nitrocellulose membranes (Licor) with iblot® dry blotting transfer system (ThermoFisher). Nonspecific binding was blocked by incubating membranes with Intercept Blocking Buffer (Licor) for 1 hour at room temperature with gentle shaking. The membranes were then incubated overnight at 4° C. with Primary antibodies rabbit anti-AR (1:1,000, Cell Signaling, 5153) and mouse anti-GAPDH (1:5,000, Santa Cruz Biotechnology, sc-47724) diluted in Intercept Blocking Buffer containing 0.1% Tween 20. After washing 3 times with TBS-T, the membranes were incubated with IRDye® […] goat anti-mouse IgG (1:20,000, Licor) or IRDye® […] goat anti-rabbit IgG (1:20,000, Licor) for 1 hour. After TBS-T washes, membranes were rinsed in TBS and scanned on Odyssey® CLx Imaging System (Licor). The bands were quantified using Image Studio™ Software (Licor).
Tables 5 and 6 summarize the androgen receptor (AR) degradative activity of exemplary compounds in LNCAP, VCAP and 22Rv1 cell lines 24 hours after administration. DC50: compound concentration needed for 50% target protein degradation.

Some results are limits rather than exact numbers.

`C[C@@H]1CN(c2ccc(C#N)c3ncccc23)[C@@H](C)CN1C(=O)Nc1ccc(N2CCC(CN3CCN(c4ccc5c(c4)C(=O)N(C4CCC(=O)NC4=O)C5=O)CC3)CC2)c(F)c1` (stereo partly drawn) [Compound 2-12, (2R,5S)-4-(8-cyanoquinolin-5-yl)-N-(4-(4-((4-(2-(2,6-dioxopiperidin-3-yl)-1,3-dioxoisoindolin-5-yl)piperazin-1-yl)methyl)piperidin-1-yl)-3-fluorophenyl)-2,5-dimethylpiperazine-1-carboxamide] returned a 50% degradation concentration (DC50) of over 100 nM.

`CC(C)N(CC1CCN(c2ccc(NC(=O)N3C[C@H](C)N(c4ccc(C#N)c5ncccc45)C[C@H]3C)cn2)CC1)C1CC(Oc2ccc3c(c2)C(=O)N(C2CCC(=O)NC2=O)C3=O)C1` (stereo partly drawn) [Compound 2-13, (2R,5S)-4-(8-cyanoquinolin-5-yl)-N-(6-(4-((((1r,3r)-3-((2-(2,6-dioxopiperidin-3-yl)-1,3-dioxoisoindolin-5-yl)oxy)cyclobutyl)(isopropyl)amino)methyl)piperidin-1-yl)pyridin-3-yl)-2,5-dimethylpiperazine-1-carboxamide]: the DC50 is over 100 nM. `CC(C)N(CC1CCN(c2ncc(NC(=O)N3C[C@H](C)N(c4ccc(C#N)c5ncccc45)C[C@H]3C)cn2)CC1)C1CC(Oc2ccc3c(c2)C(=O)N(C2CCC(=O)NC2=O)C3=O)C1` (stereo partly drawn) [Compound 2-14, (2R,5S)-4-(8-cyanoquinolin-5-yl)-N-(2-(4-((((1r,3r)-3-((2-(2,6-dioxopiperidin-3-yl)-1,3-dioxoisoindolin-5-yl)oxy)cyclobutyl)(isopropyl)amino)methyl)piperidin-1-yl)pyrimidin-5-yl)-2,5-dimethylpiperazine-1-carboxamide] returned a DC50 of at most 10 nM. `C[C@H]1CN(C(=O)Nc2ccc(N3CCC(CN4CCN(c5ccc6c(c5)C(=O)N(C5CCC(=O)NC5=O)C6=O)CC4)CC3)nc2)CCN1c1ccc(C#N)c2ncccc12` (stereo partly drawn) [Compound 2-15, (3S)-4-(8-cyanoquinolin-5-yl)-N-(6-(4-((4-(2-(2,6-dioxopiperidin-3-yl)-1,3-dioxoisoindolin-5-yl)piperazin-1-yl)methyl)piperidin-1-yl)pyridin-3-yl)-3-methylpiperazine-1-carboxamide]: the half-maximal degradation concentration (DC50) is over 100 nM. For `C[C@H]1CN(C(=O)Nc2cnc(N3CCC(CN4CCN(c5ccc6c(c5)C(=O)N(C5CCC(=O)NC5=O)C6=O)CC4)CC3)nc2)CCN1c1ccc(C#N)c2ncccc12` (stereo partly drawn) [Compound 2-16, (3S)-4-(8-cyanoquinolin-5-yl)-N-(2-(4-((4-(2-(2,6-dioxopiperidin-3-yl)-1,3-dioxoisoindolin-5-yl)piperazin-1-yl)methyl)piperidin-1-yl)pyrimidin-5-yl)-3-methylpiperazine-1-carboxamide] the value was over 100 nM; for `C[C@@H]1CN(c2ccc(C#N)c3ncccc23)[C@@H](C)CN1C(=O)Nc1cc(F)c(N2CCC(CN3CCN(c4ccc5c(c4)C(=O)N(C4CCC(=O)NC4=O)C5=O)CC3)CC2)cc1F` (stereo partly drawn) [Compound 2-17, (2R,5S)-4-(8-cyanoquinolin-5-yl)-N-(4-(4-((4-(2-(2,6-dioxopiperidin-3-yl)-1,3-dioxoisoindolin-5-yl)piperazin-1-yl)methyl)piperidin-1-yl)-2,5-difluorophenyl)-2,5-dimethylpiperazine-1-carboxamide], over 100 nM; for `C[C@@H]1CN(c2ccc(C#N)c3ncccc23)[C@@H](C)CN1C(=O)Nc1cc(F)c(N2CCC(CN3CCN(c4ccc5c(c4)CN([C@H]4CCC(=O)NC4=O)C5=O)CC3)CC2)cc1F` [Compound 2-18, (2R,5S)-4-(8-cyanoquinolin-5-yl)-N-(4-(4-((4-(2-((S)-2,6-dioxopiperidin-3-yl)-1-oxoisoindolin-5-yl)piperazin-1-yl)methyl)piperidin-1-yl)-2,5-difluorophenyl)-2,5-dimethylpiperazine-1-carboxamide], over 100 nM. Then `C[C@@H]1CN(c2ccc(C#N)c3ncccc23)[C@@H](C)CN1C(=O)Nc1ccc(N2CCC(CN3CCN(c4ccc5c(c4)CN([C@H]4CCC(=O)NC4=O)C5=O)CC3)CC2)c(F)c1` [Compound 2-21, (2R,5S)-4-(8-cyanoquinolin-5-yl)-N-(4-(4-((4-(2-((S)-2,6-dioxopiperidin-3-yl)-1-oxoisoindolin-5-yl)piperazin-1-yl)methyl)piperidin-1-yl)-3-fluorophenyl)-2,5-dimethylpiperazine-1-carboxamide], with over 100 nM; and `C[C@@H]1CN(c2ccc(C#N)c3ncccc23)[C@@H](C)CN1C(=O)Nc1ccc(N2CCC(CN3CCN(c4cc5c(cc4F)C(=O)N(C4CCC(=O)NC4=O)C5=O)CC3)CC2)nc1` (stereo partly drawn) [Compound 2-22, (2R,5S)-4-(8-cyanoquinolin-5-yl)-N-(6-(4-((4-(2-(2,6-dioxopiperidin-3-yl)-6-fluoro-1,3-dioxoisoindolin-5-yl)piperazin-1-yl)methyl)piperidin-1-yl)pyridin-3-yl)-2,5-dimethylpiperazine-1-carboxamide], with over 100 nM.

`C[C@@H]1CN(c2ccc(C#N)c3ncccc23)[C@@H](C)CN1C(=O)Nc1cnc(N2CCC(CN3CCN(c4cc5c(cc4F)C(=O)N(C4CCC(=O)NC4=O)C5=O)CC3)CC2)nc1` (stereo partly drawn) [Compound 2-23, (2R,5S)-4-(8-cyanoquinolin-5-yl)-N-(2-(4-((4-(2-(2,6-dioxopiperidin-3-yl)-6-fluoro-1,3-dioxoisoindolin-5-yl)piperazin-1-yl)methyl)piperidin-1-yl)pyrimidin-5-yl)-2,5-dimethylpiperazine-1-carboxamide] gave a 50% degradation concentration (DC50) of over 100 nM. Then `C[C@@H]1CN(c2ccc(C#N)c3ncccc23)[C@@H](C)CN1C(=O)Nc1ccc(N2CCC(CN3CCN(c4cc5c(cc4F)C(=O)N(C4CCC(=O)NC4=O)C5=O)CC3)CC2)c(F)c1` (stereo partly drawn) [Compound 2-24, (2R,5S)-4-(8-cyanoquinolin-5-yl)-N-(4-(4-((4-(2-(2,6-dioxopiperidin-3-yl)-6-fluoro-1,3-dioxoisoindolin-5-yl)piperazin-1-yl)methyl)piperidin-1-yl)-3-fluorophenyl)-2,5-dimethylpiperazine-1-carboxamide], with over 100 nM.
